Patent EP0605371A1 (priority 1992, dated 1994)

Assays:
[1] = test system: patients with Parkinson's disease; details: cited from earlier work
cancer patients = cancer patients no longer responsive to conventional therapies; cited from earlier work
[2] = test system: patients with pulmonary sarcoidosis; test: Four-month oral melatonin treatment of patients with pulmonary sarcoidosis; assay type: in vivo
Method: (§1) Treatment with melatonin was administered to ambulant patients with various forms of systemic scleroderma, in various stages of the disease, and to patients with sarcoidosis.
(§2) The patients and methods were as follows:
(§3) Ten patients with systemic scleroderma in an active phase and four patients with pulmonary sarcoidosis were selected.
The diagnosis was made on the basis of histological tests performed on biopsy samples, the BAL for the T-lymphocyte count and scintigraphy with gallium-67. Overall lung function tests, a chest X-ray and numerous laboratory tests (ACE, blood calcium, urinary calcium, ESR, etc.) were also performed.
The effects of the treatment were evaluated monthly on the basis of any changes in lung function and ACE levels and at the end of the four-month period on the basis of any changes in the radiological findings.
(§4) When the clinical evaluation had been completed and after all the laboratory tests had been performed, the patients with systemic scleroderma and sarcoidosis received in a daily dose of 20 mg taken by mouth as a single dose between 18.00 and 20.00 hours. This timing was chosen with the aim of interfering as little as possible with the circadian rhythm of endogenous melatonin secretion.
(§5) The other patients with systemic scleroderma and those with sarcoidosis received only melatonin.

[3] = test system: patients with systemic scleroderma; assay type: in vivo
Method: as §1, §2, §3
The clinical characteristics of the patients with systemic scleroderma and the level of activity and severity of the disease were assessed with the aid of a skin score (cf. annexe) and information obtained from lung function tests, a chest X-ray, pulmonary CAT and numerous laboratory tests (antinuclear antibodies (A), A to the extractable nuclear antigen Scl-70, antinucleolar A, anti-DNA A, antimicrosome A, anticentromeric A, ESR, ACE, CRP, gamma globulins).
To assess the effects of the treatment, the skin-score, ESR, ACE, CRP were determined monthly, the lung function tests were performed every 2 months, and chest X-ray and/or thoracic CAT carried out at the end of a 4-month course of treatment.
as §4
The clinical investigations and laboratory tests performed at the start of the combined treatment therefore served both as a control on the treatment with hydroxychloroquine and to provide the base values for the tests performed during the treatment with melatonin.
as §5

[4] = 20 mg melatonin per day for four months

Q: With `COc1ccc2[nH]cc(CCNC(C)=O)c2c1` [melatonin, 5-methoxy-N-acetyltryptamine] as the compound, how does the demonstrable advantages ([1]; daily doses of up to 6 g) read?
A: The demonstrable advantages was “no demonstrable advantages”.

Q: And the adverse effects ([1]; human, in vivo)?
A: Its adverse effects is “no adverse effects”.

Q: And the “patients' general condition and disease course” value (cancer patients)?
A: The value was “the patients' general condition showed improvement and the disease was temporarily stabilized”.

Q: And the “radiological investigation (changes affecting the hilum and the pulmonary parenchyma)” value ([2]; end of the four-month course)?
A: The value was “definitive reduction”.

Q: What about the lung function tests ([2]; end of the four-month course, four patients) of the same compound?
A: Its lung function tests is “the findings in three patients had returned to normal and the fourth patient showed marked improvement”.

Q: What about the “fall of BAL lymphocyte count” value ([2]; end of the four-month course, on average) of the same compound?
A: Its value is 70%.

Q: What about the ACE ([2]; monthly determination, 20 mg per day, all cases (FIG.2)) of the same compound?
A: The ACE was “the values gradually returned to normal”.

Q: And the “CRP or gamma globulin values” [3, 4]?
A: The value was “No significant changes”.

Q: And the subjective respiratory disturbances [3, 4]?
A: The subjective respiratory disturbances was “marked subjective reduction”.

Q: And the lung function tests ([3]; 20 mg melatonin per day for four months, ten patients)?
A: Its lung function tests is “significant improvement in nine of the ten patients”.

Q: What about the skin score ([3]; 20 mg melatonin per day for four months, ten patients (FIG.1)) of the same compound?
A: Its skin score is “highly positive results”.

Q: What about the “chest X-ray” value ([3]; after 4 months of treatment, all patients) of the same compound?
A: The value was “No significant changes were found in any of the patients”.

Q: What about the ESR ([3]; throughout the course of treatment, 20 mg per day) of the same compound?
A: Its ESR is “It was not possible to demonstrate that the hormone treatment had an effect on this parameter”.
